Experimental data: patent US20230109839A1, “THERAPEUTIC AGENT FOR TAUOPATHIES” (SUMITOMO PHARMA CO., LTD., priority 2020, published 2023)
“Also recorded” adds a separate entry of the source. Read-outs that look alike come from different tables or passages of the source.

Tests used:
[1] = system: phosphorylated tau oligomer; assay: Evaluation of phosphorylated tau oligomers in brain of APP-Tg mice, Western blotting (Test 4); assay type: in vivo, mouse; details: for Reducing effect of phosphorylated tau oligomer: 7-10 days, with ABT 1 mg/g-food; for reducing effect of tau oligomer: with food for 7-10 days, ABT 1 mg/g-food depending on the compound, brain, anti-oligomerized tau antibody TOMA-1
Method: Test 4: Evaluation of Phosphorylated Tau Oligomers Using APP-Tg Mice
This test is a test to quantify the oligomer of phosphorylated tau in the brain to evaluate the action of a compound. […] The APP-Tg mice used herein were prepared by the method described in Test 3.
The test compound administered with food to APP-Tg mice for 7-10 days. At this time, in order to increase the blood concentration of the test compound, ABT was used in combination with a mixed diet of 1 mg/g-food depending on the compound. After the administration, the brain was collected, and the protein is extracted from the collected brain using TBS (Tris Buffered Saline) or sarcosyl, and then SDS-PAGE (sodium dodecyl sulfate-polyacrylamide gel electrophoresis) of the soluble or insoluble fraction was performed. After that, Western blotting was performed using an anti-oligomerized tau antibody (Anti-Tau, oligomeric, clone TOMA-1), and the effect of the test compound was evaluated by quantifying the band amount of the phosphorylated tau oligomer.
The reducing effect of phosphorylated tau oligomer was calculated by the following formula, and from the calculated values, the results were defined as follows: 0-25%: +, 25-50%: ++, 50-75%: +++, and 75-100%: ++++. The significant difference from the vehicle-administered group was determined using the Student t-test. For the band amount, the value corrected by the β-actin band amount was used.
Reducing effect of phosphorylated tau oligomer={(band amount of oligomerized tau in vehicle-administered group−band amount of oligomerized tau in test compound-administered group)/band amount of oligomerized tau in vehicle-administered group}×100

human Nav1.1 = molecular target: T1, human Nav1.1 (Homo sapiens, UniProt P35498); assay: Amplification of Nav1.1-derived voltage-gated sodium current (Nav1.1 current), automated patch clamp (Test 1); assay type: cell-based; details: read-out: Nav1.1 current amplification rate (%)
T1 construct: host or cells: HEK293
Procedure, shortened: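 Compound-induced change in ramp-evoked sodium current peak and AUC was expressed as 100×post/pre ratio minus 100. Recordings used automated patch clamp in voltage-clamp mode on a stable human Nav1.1 HEK293 line, including only cells above 500 pA. Compounds were delivered in extracellular fluid containing 1% DMSO.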

APP-Tg mouse = assay: Evaluation of the cognitive function by novel object recognition test (NORT) in APP-Tg mice (Test 3); assay type: in vivo; parameters: key to Discrimination index: (novel − known search time)/(novel + known search time); details: for improvement of cognitive function (NORT), summary of the above results / improvement of cognitive function (NORT): APP-Tg mice; for improvement of cognitive function (NORT), summary of the above results: alone, with Elacridar or with ABT depending on the compound; for improvement of cognitive function (NORT): test compound and ABT (1 mg/g-food) administered with food for 10 days; for Discrimination index: APP-Tg mouse, with ABT 1 mg/g-food
Method: Test 3: Evaluation of the Cognitive Function by Novel Object Recognition Test (Hereinafter, Also Referred to as “NORT”)
The present test is for evaluating the improvement of cognitive function with the test compounds. When an APP-Tg mouse which is an AD (Alzheimer's disease) model mouse is evaluated by NORT, the memory for a familiar object decreases depending on the time interval between the first trial run (training) and the second trial run (test). For example, if the first trial run is done and 3 hours later the second one is done, there is no difference in the searching times between novel object and known object for the APP-Tg mouse, compared with a healthy mouse. Thus, the APP-Tg mouse suffers from significant amnesia.
The APP-Tg mouse used herein was prepared by constructing an expression cassette linked to human APP751 isoform to which Swedish (K670N/M671L) and Indiana (V717F) mutation were introduced at downstream of mouse Thy-1 promoter, then injecting the expression cassette into a mouse fertilized egg, and transplanting it to a host mouse. The prepared mouse presents with intracerebral AB accumulation and cognitive dysfunction from early on, and thus the mouse can be used for the evaluation of cognitive function. APP-Tg mouse has been also reported in Non-patent literature 6.
To the prepared APP-Tg mouse, the test compound was administered, and then the first trial run was done for the mouse 30 minutes after the intraperitoneal administration or after 10 days of mixed diet administration. The second trial run was done 3 hours after the first trial run, and the searching times between novel object and known object in the second trial were evaluated. The discrimination index was calculated from the searching time for novel object and known object in the second trial run, and the improvement of cognitive function of the test compound was confirmed by comparing the discrimination index with the test compound-unadministered group as an index of the cognitive function. The discrimination index was calculated by the following formula.
Discrimination index={(Searching time for novel object)−(Searching time for known object)}/{(Searching time for novel object)+(Searching time for known object)}
The present test can be also done with a combination with Elacridar (Tokyo Chemical Industry Co., Ltd.). Elacridar can inhibit P-gp and BCRP which are excretion transporters expressed in the blood-brain barrier and thereby Elacridar has the effect of improving the transferability of the test compound to the brain. Eracridal was orally administered to APP-Tg mice at 100 mg/kg 2 hours before the first trial run, and then the test compound was intraperitoneally administered to the mice 30 minutes before the first trial run according to the above method. And, the improvement of cognitive function was evaluated. The significant difference from the vehicle-administered group was determined using the parametric Dunnett multiple comparison test.
And, the present test can be also done with a combination with ABT (1-aminobenzotriazole) (Tokyo Chemical Industry Co., Ltd.). ABT has the effect of improving the blood concentration of the test compound by inhibiting CYP and suppressing metabolism. The test compound and ABT (1 mg/g-food) were administered with food to APP-Tg mice for 10 days, and then the improvement of cognitive function was evaluated according to the above method. The significant difference from the vehicle-administered group was determined using the parametric Dunnett multiple comparison test.

[2] = HEK293, Concentration for evaluation 1 μM, HEK293 cell line stably expressing human Nav1.1
[3] = HEK293, concentration for evaluation 1 μM, HEK293 stably expressing human Nav1.1

| activation at 1 µM (human Nav1.1; [2]) [%] | Structure (SMILES) | Reducing effect of phosphorylated tau oligomer ([1]; dose 2 mg/g-food) | Reducing effect of phosphorylated tau oligomer ([1]; dose 0.2 mg/g-food) | reducing effect of tau oligomer [1] | improvement of cognitive function (NORT), summary of the above results (APP-Tg mouse) | improvement of cognitive function (NORT) (APP-Tg mouse) | Discrimination index (APP-Tg mouse; dose 0.2 mg/g-food for 10 days) | Discrimination index (APP-Tg mouse; dose 2 mg/g-food for 10 days) | further results |
| --- | --- | --- | --- | --- | --- | --- | --- | --- | --- |
| 25 | Cc1cc(NC(=O)Cn2nc(C3=CCC(C)CC3)ccc2=O)cc(C)n1 (centres unmarked) [Example 364, N-(2,6-dimethylpyridin-4-yl)-2-[3-(4-methylcyclohex-1-en-1-yl)-6-oxopyridazin-1(6H)-yl]acetamide] | + (0-25%: +) | – | – | – | – | – | – | Reducing effect of phosphorylated tau oligomer ([1]; dose 0.6 mg/g-food): + (0-25%: +) |
| – | CN(CC1CCC1)c1ncc2cnn(CC(=O)Nc3ccc4ncnn4c3)c2n1 [Example 819, 2-{6-[(cyclobutylmethyl)(methyl)amino]-1H-pyrazolo[3,4-d]pyrimidin-1-yl}-N-([1,2,4]triazolo[1,5-a]pyridin-6-yl)acetamide] | + (0-25%: +) | ++ (25-50%: ++) | some reducing effect of tau oligomer | some improvement of cognitive function | some improvement of cognitive function; also recorded: strong improvement of cognitive function | 0.47 | 0.52 | activation at 1 µM (human Nav1.1; [3]): 88% |
| – | CN(c1ncc2cnn(CC(=O)Nc3ccc4ncnn4c3)c2n1)C1CC(C)(C)C1 [Example 821, 2-{6-[(3,3-dimethylcyclobutyl)(methyl)amino]-1H-pyrazolo[3,4-d]pyrimidin-1-yl}-N-([1,2,4]triazolo[1,5-a]pyridin-6-yl)acetamide] | + (0-25%: +) | + (0-25%: +) | – | some improvement of cognitive function | some improvement of cognitive function; also recorded: strong improvement of cognitive function | 0.30 | 0.37 | activation at 1 µM (human Nav1.1; [3]): 116% |
| 106 | CN(c1cnc2cnn(CC(=O)Nc3ccc(C#N)nc3)c2n1)C1CC2(CC2)C1 [Example 753, N-(6-cyanopyridin-3-yl)-2-{6-[methyl(spiro[2.3]hexan-5-yl)amino]-1H-pyrazolo[3,4-b]pyrazin-1-yl}acetamide] | – | – | some reducing effect of tau oligomer | – | – | – | – | Reducing effect of phosphorylated tau oligomer ([1]; dose 0.1 mg/g-food): ++ (25-50%: ++); Reducing effect of phosphorylated tau oligomer ([1]; dose 4 mg/g-food): ++ (25-50%: ++); Discrimination index (APP-Tg mouse; dose 0.1 mg/g-food for 10 days): 0.21; Discrimination index (APP-Tg mouse; dose 4 mg/g-food for 10 days): 0.28 |
| 120 | CN(c1cnc2cnn(CC(=O)Nc3ccn4ncnc4c3)c2n1)C1CC2(CC2)C1 [Example 630, 2-{6-[methyl(spiro[2.3]hexan-5-yl)amino]-1H-pyrazolo[3,4-b]pyrazin-1-yl}-N-([1,2,4]triazolo[1,5-a]pyridin-7-yl)acetamide] | ++ (25-50%: ++) | ++ (25-50%: ++) | some reducing effect of tau oligomer | some improvement of cognitive function | some improvement of cognitive function | 0.04 | 0.45 | – |
| 102 | N#Cc1ccc(NC(=O)Cn2ncc3ncc(N4CCC5(CC5)C(F)(F)C4)nc32)cn1 [Example 746, N-(6-cyanopyridin-3-yl)-2-[6-(4,4-difluoro-6-azaspiro[2.5]octan-6-yl)-1H-pyrazolo[3,4-b]pyrazin-1-yl]acetamide] | ++ (25-50%: ++) | ++ (25-50%: ++) | some reducing effect of tau oligomer | some improvement of cognitive function | some improvement of cognitive function | 0.28 | 0.38 | – |
| – | CN(c1ccc(=O)n(CC(=O)N2CCc3c(N4CCOCC4)cccc32)n1)C1CCCC1 [Example 565, 6-[cyclopentyl(methyl)amino]-2-{2-[4-(morpholin-4-yl)-2,3-dihydro-1H-indol-1-yl]-2-oxoethyl}pyridazin-3(2H)-one] | – | – | some reducing effect of tau oligomer; also recorded: strong reducing effect of tau oligomer | – | – | – | – | Reducing effect of phosphorylated tau oligomer ([1]; dose 0.5 mg/g-food): +++ (50-75%: +++); Reducing effect of phosphorylated tau oligomer ([1]; dose 4.5 mg/g-food): ++ (25-50%: ++) |
| – | Cc1ncccc1N1CCN(C(=O)Cn2nc(C3=CCC(C)CC3)ccc2=O)CC1 (centres unmarked) [Example 410, 6-(4-methylcyclohex-1-en-1-yl)-2-{2-[4-(2-methylpyridin-3-yl)piperazin-1-yl]-2-oxoethyl}pyridazin-3 (2H)-one] | + (0-25%: +) | – | some reducing effect of tau oligomer; also recorded: strong reducing effect of tau oligomer | – | – | – | – | Reducing effect of phosphorylated tau oligomer ([1]; dose 0.6 mg/g-food): +++ (50-75%: +++); activation at 3 µM (human Nav1.1; HEK293, Concentration for evaluation 3 μM, HEK293 cell line stably expressing human Nav1.1): 66% |
